Values of other authors, collected in patent US20230405095A1, “DOSING REGIMEN” (VIIV HEALTHCARE UK (NO. 7) LIMITED, priority 2022, published 2023).

B1: rHuPH20: soluble hyaluronidase composition produced upon expression in a mammalian cell of nucleic acid encoding residues 36-482 of SEQ ID NO:1 (protein, listed as Homo sapiens)
chain: LNFRAPPVIPNVPFLWAWNAPSEFCLGKFDEPLDMSLFSFIGSPRINATGQGVTIFYVDRLGYYPYIDSITGVTVNGGIPQKISLQDHLDKAKKDITFYMPVDNLGMAVIDWEEWRPTWARNWKPKDVYKNRSIELVQQQNVQLSLTEATEKAKQEFEKAGKDFLVETIKLGKLLRPNHLWGYYLFPDCYNHHYKKPGYNGSCFNVEIKRNDDLSWLWNESTALYPSIYLNTQQSPVAATLYVRNRVREAIRVSKIPDAKSPLPVFAYTRIVFTDQVLKFLSQDELVYTFGETVALGASGIVIWGTLSIMRSMKSCLLLDNYMETILNPYIINVTLAAKMCSQVLCQEQGVCIRKNWNSSDYLHLNPDNFAIQLEKGGKFTVRGKPTLEDLEQFSEKFYCSCYSTLSCKEKADVKDTDAVDVCIADGVCIDAFLKPPMETEEPQIFY
modifications: precursor human PH20

How the values were obtained:
[1] = after injection of hyaluronidase; cited from earlier work
[2] = in vivo, sc; cited from earlier work

Molecule	time until permeability barrier is restored to pre-injection levels [1]	subcutaneous doses shown to be well tolerated [2]
hyaluronidase	24 to 48 h	
B1		up to 96,000 U
